Data as given in publication PMC9919591, “New Triazine Derivatives as Serotonin 5-HT6 Receptor Ligands” (Molecules, 2023).
pKi: −log10 of the molar value. Where “and” joins values, the source holds several entries; their conditions need not be identical. Equal entries are not always repeated. Structures can show the parent of a compound that is named as a salt.

Columns and labels:
[1] = PAMPA, study b; cited from earlier work
human 5-HT6R = target: T1, human 5-HT6R (Homo sapiens, UniProt P50406); test: Radioligand binding assay, 5-HT6R ([3H]-LSD); details: for decrease in affinity for 5-HT6R compared to MST4: ratio of Ki values vs MST4 (Ki = 11 nM); for pKi: [3H]-LSD, HEK293 cells stably expressing human 5-HT6R, average of at least two independent experiments
T1 construct: expressed in transfected cells; host or cells: HEK293
Procedure: The affinity of compounds (1–25) for 5-HT6R was evaluated in the radioligand binding assay in HEK293 cells stably expressing human 5-HT6R. [^3H]-LSD as a radioligand was used. […] All results are collected in Table 1, Table 2 and Table 3.
Radioligand binding assays were used to determine the affinity of the synthesized compounds for human serotonin 5-HT6R, 5-HT2AR, 5-HT7R and dopamine D2R, which were stably expressed in HEK293 cells or CHOk1 cells (5-HT2AR). This was done as described previously.

human 5-HT2AR = target: T2, human 5-HT2AR (Homo sapiens, UniProt P28223); test: Radioligand binding assay, 5-HT2AR ([3H]-ketanserin); details: CHO-K1 cells stably expressing human 5-HT2AR
T2 construct: expressed in transfected cells; host or cells: CHO-K1
Procedure: (§1) Affinity for serotonin 5-HT2A, 5-HT7 and dopamine D2 receptors (D2R) as protein off-targets was evaluated in the radioligand binding assays. In CHO-K1 cells, it was stably expressed human 5-HT2AR, whereas human 5-HT7R and D2R were stably expressed in HEK293 cells. […] A particularly weak affinity towards this receptor was shown through compounds of series 1 (compounds 1–7) and series 2 (compounds 8–13). […]. Radioligand binding assays were used to determine the affinity of the synthesized compounds for human serotonin 5-HT6R, 5-HT2AR, 5-HT7R and dopamine D2R, which were stably expressed in HEK293 cells or CHOk1 cells (5-HT2AR). This was done as described previously.

human 5-HT7R = target: T3, human 5-HT7R (Homo sapiens, UniProt P34969); test: Radioligand binding assay, 5-HT7R ([3H]-5-CT); details: HEK293 cells stably expressing human 5-HT7R
T3 construct: expressed in transfected cells; host or cells: HEK293
Procedure: as §1

human D2R = target: T4, human D2R (Homo sapiens, UniProt P14416); test: Radioligand binding assay, D2R ([3H]-raclopride); details: HEK293 cells stably expressing human D2R
T4 construct: expressed in transfected cells; host or cells: HEK293
Procedure: as §1

T3 sequence (P34969 whole entry): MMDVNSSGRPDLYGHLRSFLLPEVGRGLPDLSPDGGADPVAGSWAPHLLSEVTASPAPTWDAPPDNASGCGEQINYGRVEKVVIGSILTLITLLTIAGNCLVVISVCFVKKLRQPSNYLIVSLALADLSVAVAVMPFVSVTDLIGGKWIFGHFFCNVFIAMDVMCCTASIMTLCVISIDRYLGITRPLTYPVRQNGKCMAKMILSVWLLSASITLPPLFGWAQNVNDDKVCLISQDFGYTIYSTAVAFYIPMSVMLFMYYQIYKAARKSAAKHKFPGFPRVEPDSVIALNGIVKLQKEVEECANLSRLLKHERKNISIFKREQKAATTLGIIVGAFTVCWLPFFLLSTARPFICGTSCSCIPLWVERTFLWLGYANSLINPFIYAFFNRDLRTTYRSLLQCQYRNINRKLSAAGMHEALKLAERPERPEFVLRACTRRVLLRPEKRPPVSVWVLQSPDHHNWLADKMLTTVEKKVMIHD
T2 sequence (P28223 whole entry): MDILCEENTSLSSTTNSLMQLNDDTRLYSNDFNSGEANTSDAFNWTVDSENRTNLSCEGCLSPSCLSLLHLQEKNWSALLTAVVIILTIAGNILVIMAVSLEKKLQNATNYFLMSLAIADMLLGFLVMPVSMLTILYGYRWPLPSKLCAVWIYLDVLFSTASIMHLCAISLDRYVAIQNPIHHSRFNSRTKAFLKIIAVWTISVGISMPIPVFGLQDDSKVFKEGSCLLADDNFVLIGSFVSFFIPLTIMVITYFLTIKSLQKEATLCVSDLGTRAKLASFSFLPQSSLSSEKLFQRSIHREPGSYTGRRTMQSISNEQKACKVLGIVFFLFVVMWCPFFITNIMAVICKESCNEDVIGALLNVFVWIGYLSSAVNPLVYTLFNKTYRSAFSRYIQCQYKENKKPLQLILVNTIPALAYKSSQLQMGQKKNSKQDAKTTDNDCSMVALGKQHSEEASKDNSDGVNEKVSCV
T4 sequence (P14416 whole entry): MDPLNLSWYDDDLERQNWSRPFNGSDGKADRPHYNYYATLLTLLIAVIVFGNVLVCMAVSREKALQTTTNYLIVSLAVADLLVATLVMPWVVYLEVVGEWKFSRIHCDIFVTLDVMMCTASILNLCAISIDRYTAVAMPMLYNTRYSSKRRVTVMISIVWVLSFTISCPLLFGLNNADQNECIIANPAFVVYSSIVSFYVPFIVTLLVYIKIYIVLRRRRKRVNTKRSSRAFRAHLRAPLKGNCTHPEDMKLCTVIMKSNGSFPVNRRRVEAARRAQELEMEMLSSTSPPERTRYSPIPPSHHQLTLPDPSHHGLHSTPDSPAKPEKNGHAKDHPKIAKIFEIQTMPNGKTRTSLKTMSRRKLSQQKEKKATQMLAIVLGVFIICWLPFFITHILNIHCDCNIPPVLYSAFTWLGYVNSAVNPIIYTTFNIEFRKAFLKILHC
T1 sequence (P50406 whole entry): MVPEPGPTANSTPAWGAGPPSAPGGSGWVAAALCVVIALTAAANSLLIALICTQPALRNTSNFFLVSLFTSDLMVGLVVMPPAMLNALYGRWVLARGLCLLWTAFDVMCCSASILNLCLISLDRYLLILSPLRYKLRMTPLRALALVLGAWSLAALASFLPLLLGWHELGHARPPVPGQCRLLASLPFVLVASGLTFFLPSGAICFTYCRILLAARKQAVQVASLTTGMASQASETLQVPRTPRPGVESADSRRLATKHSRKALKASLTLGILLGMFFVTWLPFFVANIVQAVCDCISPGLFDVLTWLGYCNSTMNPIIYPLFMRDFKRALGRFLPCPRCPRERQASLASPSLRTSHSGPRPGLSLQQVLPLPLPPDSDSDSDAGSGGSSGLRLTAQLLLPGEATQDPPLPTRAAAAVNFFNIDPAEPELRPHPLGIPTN

| Compound | melting point | Pe ± SD [1] | decrease in affinity for 5-HT6R compared to MST4 (human 5-HT6R) [fold] | pKi (human 5-HT6R) | pKi (human 5-HT2AR) | pKi (human 5-HT7R) | pKi (human D2R) |
| --- | --- | --- | --- | --- | --- | --- | --- |
| CN1CCN(c2nc(N)nc(COc3ccc(C(C)(C)C)cc3C(C)(C)C)n2)CC1 (as salt: hydrochloride) [Compound 13, 4-((2,4-(di-tert-Butyl)phenoxy)methyl)-6-(4-methylpiperazin-1-yl)-1,3,5-triazin-2-amine hydrochloride] | 284 to 287 °C |  |  |  |  |  |  |
| Cn1c(=O)c2c(ncn2C)n(C)c1=O [CFN, Caffeine] |  | 15.1 ± 0.4 ×10^−6 cm/s |  |  |  |  |  |
| Cc1cccc(OCc2nc(N)nc(N3CCN(C)CC3)n2)c1 [Compound 1] |  |  | 19 |  |  |  |  |
| CC(C)c1ccccc1OCc1nc(N)nc(N2CCN(C)CC2)n1 [Compound 2, 4-((2-Isopropylphenoxy)methyl)-6-(4-methylpiperazin-1-yl)-1,3,5-triazin-2-amine] | 140 to 142 °C |  | 2 | 7.68 | 5.90 | 4.79 |  |
| CC(C)c1cccc(OCc2nc(N)nc(N3CCN(C)CC3)n2)c1 [Compound 4, 4-((3-Isopropylphenoxy)methyl)-6-(4-methylpiperazin-1-yl)-1,3,5-triazin-2-amine] | 103 to 105 °C |  |  | 7.39 | 5.58 | 5.24 | 5.75 |
| CN1CCN(c2nc(N)nc(COc3cccc(C(C)(C)C)c3)n2)CC1 [Compound 5, 4-((3-(tert-Butyl)phenoxy)methyl)-6-(4-methylpiperazin-1-yl)-1,3,5-triazin-2-amine] | 101.2 to 104.1 °C |  |  | 6.97 | 5.51 | 4.81 |  |
| CC(C)c1ccc(OCc2nc(N)nc(N3CCN(C)CC3)n2)cc1 [Compound 6, 4-((4-Isopropylphenoxy)methyl)-6-(4-methylpiperazin-1-yl)-1,3,5-triazin-2-amine] | 133 to 135 °C |  |  | 6.38 | 6.61 | 4.99 |  |
| CN1CCN(c2nc(N)nc(COc3ccc(C(C)(C)C)cc3)n2)CC1 [Compound 7, 4-((4-(tert-Butyl)phenoxy)methyl)-6-(4-methylpiperazin-1-yl)-1,3,5-triazin-2-amine] | 104.4 °C (dec.) |  |  | 6.82 | 6.26 | 5.38 | 5.50 |
| Cc1ccc(C(C)(C)C)c(OCc2nc(N)nc(N3CCN(C)CC3)n2)c1.Cl [Compound 8, 4-((2-(tert-Butyl)-5-methylphenoxy)methyl)-6-(4-methylpiperazin-1-yl)-1,3,5-triazin-2-amine hydrochloride] | 259 °C (dec.) |  |  | 8.22 | 5.90 | 4.82 | 5.80 |
| Cc1ccc(OCc2nc(N)nc(N3CCN(C)CC3)n2)c(C(C)(C)C)c1 [Compound 9, 4-((2-(tert-Butyl)-4-methylphenoxy)methyl)-6-(4-methylpiperazin-1-yl)-1,3,5-triazin-2-amine] | 146.5 °C (dec.) |  |  | 7.32 | 5.71 | 4.96 | 5.64 |
| Cc1cccc(C(C)(C)C)c1OCc1nc(N)nc(N2CCN(C)CC2)n1 [Compound 10, 4-((2-(tert-Butyl)-6-methylphenoxy)methyl)-6-(4-methylpiperazin-1-yl)-1,3,5-triazin-2-amine] | 177 to 179 °C (dec.) |  |  | 6.63 |  | 4.78 |  |
| CC(C)c1cccc(C(C)C)c1OCc1nc(N)nc(N2CCN(C)CC2)n1 [Compound 11, 4-((2,6-Diisopropylphenoxy)methyl)-6-(4-methylpiperazin-1-yl)-1,3,5-triazin-2-amine] | 160 to 163 °C |  |  | 6.08 | 5.11 | 4.47 |  |
| CN1CCN(c2nc(N)nc(COc3c(C(C)(C)C)cccc3C(C)(C)C)n2)CC1 [Compound 12, 4-((2,6-(di-tert-Butyl)phenoxy)methyl)-6-(4-methylpiperazin-1-yl)-1,3,5-triazin-2-amine hydrochloride] |  |  |  | 6.42 |  | 5.09 |  |
| CN1CCN(c2nc(N)nc(COc3ccc(C(C)(C)C)cc3C(C)(C)C)n2)CC1 [Compound 13, 4-((2,4-(di-tert-Butyl)phenoxy)methyl)-6-(4-methylpiperazin-1-yl)-1,3,5-triazin-2-amine hydrochloride] |  |  |  | 6.79 | 6.12 | 5.07 | 5.56 |
| Cc1ccc(C(C)C)c(OCCCc2nc(N)nc(N3CCN(C)CC3)n2)c1 [Compound 14, 4-(3-(2-Isopropyl-5-methylphenoxy)propyl)-6-(4-methylpiperazin-1-yl)-1,3,5-triazin-2-amine] | 77 °C |  |  | 6.39 | 5.77 | 5.18 | 5.80 |
| CC(C)c1ccccc1OCCCc1nc(N)nc(N2CCN(C)CC2)n1.Cl [Compound 15, 4-(3-(2-Isopropylphenoxy)propyl)-6-(4-methylpiperazin-1-yl)-1,3,5-triazin-2-amine hydrochloride] | 235 °C |  |  | 6.66 | 6.31 | 5.05 | 5.61 |
| CC(C)c1ccc(OCCCc2nc(N)nc(N3CCN(C)CC3)n2)cc1 [Compound 16, 4-(3-(4-Isopropylphenoxy)propyl)-6-(4-methylpiperazin-1-yl)-1,3,5-triazin-2-amine] | 92 °C |  |  | 5.96 | 5.93 | 5.29 | 6.15 |
| Cc1cccc(OCCCc2nc(N)nc(N3CCN(C)CC3)n2)c1 [Compound 17, 4-(4-Methylpiperazin-1-yl)-6-(3-(m-tolyloxy)propyl)-1,3,5-triazin-2-amine] | 114 to 117 °C |  |  | 5.84 | 5.41 | 4.52 | 5.59 |
| Cc1ccccc1OCCCc1nc(N)nc(N2CCN(C)CC2)n1 [Compound 18, 4-(4-Methylpiperazin-1-yl)-6-(3-(o-tolyloxy)propyl)-1,3,5-triazin-2-amine] | 83 °C |  |  | 6.24 | 5.84 | 4.83 | 5.75 |
| Cc1ccc(C(C)C)c(OCCCCc2nc(N)nc(N3CCN(C)CC3)n2)c1.Cl [Compound 19, 4-(4-(2-Isopropyl-5-methylphenoxy)butyl)-6-(4-methylpiperazin-1-yl)-1,3,5-triazin-2-amine hydrochloride] | 239 °C |  |  | 6.85 | 6.16 | 6.20 | 5.50 |
| CC(C)c1ccccc1OCCCCc1nc(N)nc(N2CCN(C)CC2)n1 [Compound 20, 4-(4-(2-Isopropylphenoxy)butyl)-6-(4-methylpiperazin-1-yl)-1,3,5-triazin-2-amine] | 59 °C |  |  | 7.37 | 6.17 | 6.18 | 5.24 |
| Cc1cccc(OCCCCc2nc(N)nc(N3CCN(C)CC3)n2)c1 [Compound 21, 4-(4-Methylpiperazin-1-yl)-6-(4-(m-tolyloxy)butyl)-1,3,5-triazin-2-amine] | 99 to 101 °C |  |  | 6.25 | 6.02 | 5.20 | 6.21 |
| Cc1ccc(C(C)C)c(OCCCCCc2nc(N)nc(N3CCN(C)CC3)n2)c1 [Compound 22, 4-(5-(2-Isopropyl-5-methylphenoxy)pentyl)-6-(4-methylpiperazin-1-yl)-1,3,5-triazin-2-amine] | 75 °C (dec.) |  |  | 6.55 | 6.15 | 6.11 | 6.08 |
| CC(C)c1ccccc1OCCCCCc1nc(N)nc(N2CCN(C)CC2)n1 [Compound 23, 4-(5-(2-Isopropylphenoxy)pentyl)-6-(4-methylpiperazin-1-yl)-1,3,5-triazin-2-amine] | 63 to 65 °C |  |  | 6.72 | 6.22 | 5.46 | 6.71 |
| Cc1cccc(OCCCCCc2nc(N)nc(N3CCN(C)CC3)n2)c1 [Compound 24, 4-(4-Methylpiperazin-1-yl)-6-(5-(m-tolyloxy)pentyl) 1,3,5-triazin-2-amine] | 83 to 85 °C |  |  | 6.19 | 6.07 | 5.72 | 6.32 |
| Cc1ccc(C(C)C)c(OCCCCCCc2nc(N)nc(N3CCN(C)CC3)n2)c1 [Compound 25, 4-(6-(2-Isopropyl-5-methylphenoxy)hexyl)-6-(4-methylpiperazin-1-yl)-1,3,5-triazin-2-amine] | 59 °C (dec.) |  |  | 7.11 | 6.44 | 5.99 | 6.83 |
| Cc1ccc(C(C)C)c(OCc2nc(N)nc(N3CCN(C)CC3)n2)c1 [MST4, 4-((2-isopropyl-5-methylphenoxy)methyl)-6-(4-methylpiperazin-1-yl)-1,3,5-triazin-2-amine] |  | 12.3 ×10^−6 cm/s and 12.3 ± 2.0 ×10^−6 cm/s |  |  |  |  |  |
